Source: patent US10953027B2, “Active agents and methods of their use for the treatment of metabolic disorders and nonalcoholic fatty liver disease” (Flagship Pioneering Innovations V, Inc., priority 2018, dated 2021)

What was measured:
naïve CD4+ T cells = experiment: Human regulatory T cell differentiation assay; type: cell-based; settings: 3 mM, 6 days
Description: Peripheral blood mononuclear cells (PBMCs) from whole blood donated by health volunteers were separated by Ficoll-Paque gradient centrifugation and naïve CD4^+ T cells were subsequently isolated using magnet beads (EasySep™ Human Naïve CD4^+ T Cell Isolation Kit, Cambridge, Mass.). For regulatory T cell (Treg) differentiation assay, naïve CD4^+ T cells were cultured (1-10×10^4 cells) in CTS OpTmizer medium for 6 days and stimulated with 5 ng/ml TGF-β, 100 U/ml IL-2, and ImmunoCult™ Human […] T Cell Activator; Stemcell #10990) with/without our Compounds. Cell viability was determined using a viability dye (eBioscience Fixable Viability Dye eFluor 780: ThermoFisher 65-0865-14) at 1:500 dilution. The cells were gated for Treg, defined as Live, CD11c^−, CD14^−, CD19^−, CD8^−, CD4^+, CD3^+, CD25^+, FOXP3^+. Percent (%) Tregs were calculated as percentage of CD4^+, CD25^+, FOXP3^+ cells over total CD4^+ T cells. Statistical analysis was performed with GraphPad Prism Software Using One-Way ANOVA.

[1] = Assay 1. Stability in Simulated Gastric Fluid (SGF); type: in vitro ADME; settings: 1 μM, 37° C., SGF pH 1.6 with pepsin
Method in brief: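 Acylated compounds at a final 1 μM (diluted from 1 mM DMSO stock) were incubated at 37 °C in SGF of pH 1.6 NaCl buffer with FaSSIF powder and 0.1 mg/mL pepsin. Aliquots were quenched with acetonitrile at T0 and regular intervals, and degradation rates were determined by LC/MS.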

[2] = Assay 2. Stability in Simulated Intestinal Fluid (SIF); type: in vitro ADME; settings: 1 μM, 37° C., SIF pH 6.7 with pancreatin
Method in brief: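 Acylated compounds at 1 μM (from 1 mM DMSO stock) in fresh SIF: FaSSIF with pancreatin in pH 6.7 phosphate buffer, agitated at 37 °C. Aliquots from T0 onward quenched with 1 volume acetonitrile; LC/MS gives degradation rates.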

[3] = Assay 3. Fecal Incubation Stability; type: in vitro ADME; settings: 1 or 10 μM, human fecal slurry, anaerobic
Male DIO mice = experiment: In vivo evaluation for glucose disposal and lipidemia in DIO mice (Example 11); settings: for Fasting blood glucose levels (time 0 from OGTT): 28 days, 16 hour fast; for glucose AUC (0-120 min): OGTT day 28, glucose 2.0 g/kg PO
Description: The DIO mice were prepared by feeding male C57BL/6 mice a high fat diet (HFD, Research Diets D12492) from 6-14 weeks of age. DIO mice were housed individually and maintained on the HFD through the duration of study. A twelve-hour light cycle was maintained with room temperature maintained at 22-25° C. All of the mice were acclimated to the facility for 5 days prior to starting the study.
Following 5 days of facility acclimation, DIO mice were randomized into 8 groups of 10 based on body weight and blood glucose for assignment to treatment, as shown in Table 9:
All treatments were administered admixed in HFD (Research Diets, New Brunswick N.J.) and were provided ad libitum for 30 days. Drinking water for group 7 was supplemented with 1, 3 Butanediol at 3% concentration.
Body weight was recorded at baseline and twice weekly thereafter. Feed and water intakes were recorded each Monday, Wednesday, and Friday.
Blood samples (<3 μL) were obtained one hour post dose by tail clip at baseline and weekly thereafter for measurement of fed blood glucose by StatStrip. Additional anti-coagulated blood samples (100 μl, EDTA di-potassium salt) were obtained by tail clip one hour post-dose at baseline, day 14 and day 30. Anti-coagulated samples were quick frozen and stored on dry ice.
Animals were subjected to a 16 hour fast for performance of an oral glucose tolerance test (OGTT) on day 28. Blood samples were obtained via tail clip just prior to (8 am) and 15, 30, 60, 90, and 120 minutes post-glucose load (2.0 g/kg, PO) for assay of whole blood glucose (StatStrip). Feed was returned following last sample.
Animals were terminated on day 30-31 using CO2 inhalation and induction of pneumothorax. Terminal blood samples were obtained by cardiac puncture. Whole blood was processed to serum and analyzed for serum cholesterol, triglycerides, high density lipoprotein (HDL), low density lipoprotein (LDL) and non-esterified fatty acids (NEFA) using AU480 clinical analyzer.
Organ weights (liver, spleen, subcutaneous fat, inguinal fat, abdominal fat, and epididymal fat) were recorded. Sections of each fat were frozen or fixed in 4% paraformaldehyde/PBS, pH 6.9; Fat samples were placed on dry ice. Fixed liver samples (4% paraformaldehyde) were sent to Premier Laboratories for H&E staining and scoring for steatosis, inflammation and fibrosis. Spleen samples were prepared in ice cold 5% bovine serum albumin (BSA) in PBS or 4% paraformaldehyde. Sections of brain, heart, lung, and small and large intestine were fixed in 10% formalin.
All data are represented as group mean±SEM. Data were analyzed using JMP (SAS software). All normalizations were calculated using terminal body weight.
Baseline differences among groups were identified using Tukey-Kramer Hsd<0.05. Treatment effects compared to control were determined using Oneway ANOVA (*, p<0.05) followed by Dunnett's test where appropriate.

Row | SMILES | Assay 1 (SGF) (% Remaining @ 1 hours) [1] | Assay 2 (SIF) (% @ Remaining 4 hours) [2] | Assay 3 (% Remaining at 24 h) [3] | other results
1 | CCCC(=O)O [Butyric Acid] | – | – | – | Cell viability % DMSO (naïve CD4+ T cells): − (<90%: −); activity at 3000 µM (naïve CD4+ T cells; Homo sapiens, CD4+ T, 144 h, read-out: Treg induction % DMSO): < 90%
2 | CCCC(=O)O[C@@H]1[C@@H](OC(=O)CCC)[C@@H](OC)OC[C@@H]1OC(=O)CCC [Compound 85, (2S,3R,4S,5S)-3,5-bis(butanoyloxy)-2-methoxyoxan-4-yl Butanoate] | B (B: 25-75% of the tested compound remaining) | B (B: 25-75% of the tested compound remaining) | B (B: 25-75% of the tested compound remaining) | –
3 | CCC(=O)O[C@@H]1[C@@H](OC(=O)CC)[C@@H](OC(=O)CC)C(O)O[C@H]1C (stereo partly drawn) [Compound 145, (3R,4R,5S,6S)-2-hydroxy-6-methyl-4,5-bis(propanoyloxy)oxan-3-yl Propanoate] | C (C: >75% of the tested compound remaining) | A (A: <25% of the tested compound remaining) | C (C: >75% of the tested compound remaining) | –
4 | CCC(=O)Oc1ccc(-c2cc(=O)c3c(OC(=O)CC)cc(OC(=O)CC)cc3o2)cc1 [Compound 203, 4-oxo-7-(propanoyloxy)-2-[4-(propanoyloxy)phenyl]-4H-chromen-5-yl Propanoate] | C (C: >75% of the tested compound remaining) | A (A: <25% of the tested compound remaining) | B (B: 25-75% of the tested compound remaining) | –
5 | CCC(=O)OC[C@H]1O[C@H](OC)[C@H](OC(=O)CC)[C@@H](OC(=O)CC)[C@H]1OC(=O)CC [Compound 90, [(2R,3S,4S,5R,6S)-6-methoxy-3,4,5-tris(propanoyloxy)oxan-2-yl]methyl Propanoate] | C (C: >75% of the tested compound remaining) | A (A: <25% of the tested compound remaining) | A (A: <25% of the tested compound remaining) | –
6 | CCC(=O)Oc1ccc(-c2cc(=O)c3c(O)cc(OC(=O)CC)cc3o2)cc1 [Compound 199, 5-hydroxy-4-oxo-2-[4-(propanoyloxy)phenyl]-4H-chromen-7-yl Propanoate] | B (B: 25-75% of the tested compound remaining) | A (A: <25% of the tested compound remaining) | A (A: <25% of the tested compound remaining) | –
7 | CCC(=O)O[C@@H]1[C@@H](OC(=O)CC)[C@@H](OC(=O)Cc2c[nH]c3ccccc23)OC[C@H]1OC(=O)CC [Compound 149, (2R,3R,4S,5R)-2-{[2-(1H-indol-3-yl)acetyl]oxy}-4,5-bis(propanoyloxy)oxan-3-yl Propanoate] | C (C: >75% of the tested compound remaining) | A (A: <25% of the tested compound remaining) | A (A: <25% of the tested compound remaining) | –
8 | CCC(=O)OC[C@H]1O[C@@H](OC(=O)CCc2c[nH]c3ccccc23)[C@H](OC(=O)CC)[C@@H](OC(=O)CC)[C@@H]1OC(=O)CC [Compound 144, [(2R,3R,4S,5R,6S)-6-{[3-(1H-indol-3-yl)propanoyl]oxy}-3,4,5-tris(propanoyloxy)oxan-2-yl]methyl Propanoate] | C (C: >75% of the tested compound remaining) | A (A: <25% of the tested compound remaining) | A (A: <25% of the tested compound remaining) | –
9 | O=C(CCCc1ccccc1)Oc1cc(OC(=O)CCCc2ccccc2)c2c(c1)O[C@H](c1cc(OC(=O)CCCc3ccccc3)c(OC(=O)CCCc3ccccc3)c(OC(=O)CCCc3ccccc3)c1)[C@H](OC(=O)c1cc(OC(=O)CCCc3ccccc3)c(OC(=O)CCCc3ccccc3)c(OC(=O)CCCc3ccccc3)c1)C2 [Compound 5, [(2R,3R)-5,7-bis(4-phenylbutanoyloxy)-2-[3,4,5-tris(4-phenylbutanoyloxy)phenyl]chroman-3-yl] 3,4,5-tris(4-phenylbutanoyloxy)benzoate] | – | – | – | Fasting blood glucose levels (time 0 from OGTT) (Male DIO mice; 0.6% in HFD): 107.3 ± 5.3 mg/dL; glucose AUC (0-120 min) (Male DIO mice; 0.6% in HFD): 29628.0 ± 1791.7 mg/dL/min; Fasting blood glucose levels (time 0 from OGTT) (Male DIO mice; 2% in HFD): 104.7 ± 4.3 mg/dL; glucose AUC (0-120 min) (Male DIO mice; 2% in HFD): 27648.8 ± 866.3 mg/dL/min; Fasting blood glucose levels (time 0 from OGTT) (Male DIO mice; 6% in HFD): 95.1 ± 4.4 mg/dL; glucose AUC (0-120 min) (Male DIO mice; 6% in HFD): 26049.0 ± 455.4 mg/dL/min
10 | O=C(CCc1c[nH]c2ccccc12)Oc1ccc(/C=C/c2cc(OC(=O)CCc3c[nH]c4ccccc34)cc(OC(=O)CCc3c[nH]c4ccccc34)c2)cc1 [Compound 259, 4-[(1E)-2-[3,5-bis({[3-(1H-indol-3-yl)propanoyl]oxy})phenyl]ethenyl]phenyl 3-(1H-indol-3-yl)propanoate] | C (C: >75% of the tested compound remaining) | C (C: >75% of the tested compound remaining) | B (B: 25-75% of the tested compound remaining) | –
